Measured values published in patent publication US20260182575A1, “MOLECULES HAVING PESTICIDAL UTILITY AND INTERMEDIATES AND PROCESSES RELATED THERETO” (CORTEVA AGRISCIENCE LLC, priority 2022, published 2026).
“And” between values parts separate entries of the source, which are not always exact repeats. Identical values can stand only once.

Tests used:
Type in all cases: in vivo
[1] = test system: Western Flower Thrips (Frankliniella occidentalis, FRANOC, WFT); experiment: Bioassay 3: western flower thrips, cotton leaf disc dip; conditions: for Average % Control AI: 3 days; for Average % Control F1: F1 alone, 3 days after treatment
[2] = test system: Corn Earworm (Helicoverpa zea, HELIZE, CEW); experiment: Bioassay 4: corn earworm, artificial diet, 128-cell tray; conditions: for Average % Control AI: AI alone; for Average % Control F1: F1 alone
Procedure, shortened: (§1)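 Test solutions (0.0000004–0.04% w/v, i.e. 0.00005–5 μg/cm² on diet) were pipetted onto artificial lepidopteran diet and one 2nd-instar larva was placed per cell, 8 replicates per species, held at ~26° C. Live larvae were counted after 5 days; percent control used Abbott's correction against a solvent check.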

[3] = test system: Fall Armyworm (Spodoptera frugiperda, LAPHFR, FAW); experiment: Bioassay 4: fall armyworm, artificial diet, 128-cell tray; conditions: AI alone
Procedure, shortened: as §1

[4] = test system: Soybean Looper (Chrysodeixis includens, PSEPIN, SBL); experiment: Bioassay 4: soybean looper, artificial diet, 128-cell tray; conditions: AI alone
Procedure, shortened: as §1

[5] = AI alone at 1:1 rate to F1 3.125 (10^-6 Wt %)
[6] = AI alone at 1:1 rate to F1 0.78 (10^-6 Wt %)

Molecule | Average % Control AI [1, 5] | Average % Control AI ([2]; 0.000004 wt %) | Average % Control AI ([2]; 0.00004 wt %) | Average % Control AI ([3]; 0.000004 wt %) | Average % Control AI ([3]; 0.00004 wt %) | Average % Control AI ([4]; 0.000004 wt %) | Average % Control F1 ([1]; Wt % F1 (10^-6) 0.195, cotton leaf disc) | Average % Control F1 ([1]; Wt % F1 (10^-6) 12.5, cotton leaf disc) | Average % Control F1 ([1]; Wt % F1 (10^-6) 50, cotton leaf disc) | Average % Control F1 ([2]; 0.0000004 wt %) | Average % Control F1 ([2]; 0.00004 wt %) | Average % Control AI [1, 6] | Average % Control AI ([4]; 0.00004 wt %) | Average % Control AI ([1]; AI alone at 1:1 rate to F1 0.195 (10^-6 Wt %)) | Average % Control AI ([1]; AI alone at 1:1 rate to F1 12.5 (10^-6 Wt %)) | Average % Control AI ([1]; AI alone at 1:1 rate to F1 50 (10^-6 Wt %)) | Average % Control AI ([2]; 0.0004 wt %)
CC1=NNC(=O)N(/N=C/c2cccnc2)C1 [Pymetrozine] | 21.4% | 0.0% | 0.0% | 0.0% | 0.0% | 12.5% | – | – | – | – | – | – | – | – | – | – | –
Cc1ccc(COCC(F)(F)F)c(N2C(=O)CS/C2=N\C(=O)Nc2ccc(-c3ncn(-c4ccc(OC(F)(F)F)cc4)n3)cc2F)c1 [F1] | – | – | – | – | – | – | 0.0% and 5.7% | 46.0% | 79.3% | 0.0% | 75.0% | – | – | – | – | – | –
CON=CNC(=O)c1ccc(C2=NOC(c3cc(Cl)cc(Cl)c3)(C(F)(F)F)C2)cc1C (stereo not drawn) [Fluxametamide] | 4.8% | 0.0% | 0.0% | 12.5% | – | 12.5% | – | – | – | – | – | – | – | – | – | – | –
Chlorfenapyr | – | 0.0% | 12.5% | 0.0% | 37.5% | 25.0% | – | – | – | – | – | 16.7% | 37.5% | – | – | – | –
Cc1c(COC(=O)[C@@H]2[C@H](/C=C(\Cl)C(F)(F)F)C2(C)C)cccc1-c1ccccc1 (racemic) [Bifenthrin] | 11.5% | 0.0% | 0.0% | 12.5% | 12.5% | 0.0% | – | – | – | – | – | – | 0.0% | – | – | – | –
CN1COCN(Cc2cnc(Cl)s2)/C1=N\[N+](=O)[O-] [Thiamethoxam] | 6.7% | 0.0% | 0.0% | 0.0% | – | 0.0% | – | – | – | – | – | 20.0% | – | 20.0% | – | – | –
C[C@]1(COC(=O)C2CC2)[C@@H]2C[C@H](O)[C@@]3(C)Oc4cc(-c5cccnc5)oc(=O)c4[C@H](O)[C@@H]3[C@@]2(C)CC[C@@H]1OC(=O)C1CC1 [Afidopyropen] | – | 0.0% | 0.0% | 0.0% | 0.0% | 0.0% | – | – | – | – | – | – | 0.0% | – | 0.0% | 5.7% | –
COC(=O)N(C(=O)N1CO[C@@]2(C(=O)OC)Cc3cc(Cl)ccc3C2=N1)c1ccc(OC(F)(F)F)cc1 [Indoxacarb] | – | 0.0% | 0.0% | 0.0% | 0.0% | 0.0% | – | – | – | – | – | – | – | – | – | – | 0.0%
